Here are results for 31 compounds from US6855843B2, “Inhibitors of α4 mediated cell adhesion” (Tanabe Seiyaku Co., Ltd., priority 1998, dated 2005).

pIC50: −log10 of the molar value.

In this assay the target is T1, α4β7 (adhesion of RPMI cells to CS-1) (Homo sapiens, UniProt P13612+P26010).
T1 construct: endogenous in cells
T1 sequence (P13612 34-1032): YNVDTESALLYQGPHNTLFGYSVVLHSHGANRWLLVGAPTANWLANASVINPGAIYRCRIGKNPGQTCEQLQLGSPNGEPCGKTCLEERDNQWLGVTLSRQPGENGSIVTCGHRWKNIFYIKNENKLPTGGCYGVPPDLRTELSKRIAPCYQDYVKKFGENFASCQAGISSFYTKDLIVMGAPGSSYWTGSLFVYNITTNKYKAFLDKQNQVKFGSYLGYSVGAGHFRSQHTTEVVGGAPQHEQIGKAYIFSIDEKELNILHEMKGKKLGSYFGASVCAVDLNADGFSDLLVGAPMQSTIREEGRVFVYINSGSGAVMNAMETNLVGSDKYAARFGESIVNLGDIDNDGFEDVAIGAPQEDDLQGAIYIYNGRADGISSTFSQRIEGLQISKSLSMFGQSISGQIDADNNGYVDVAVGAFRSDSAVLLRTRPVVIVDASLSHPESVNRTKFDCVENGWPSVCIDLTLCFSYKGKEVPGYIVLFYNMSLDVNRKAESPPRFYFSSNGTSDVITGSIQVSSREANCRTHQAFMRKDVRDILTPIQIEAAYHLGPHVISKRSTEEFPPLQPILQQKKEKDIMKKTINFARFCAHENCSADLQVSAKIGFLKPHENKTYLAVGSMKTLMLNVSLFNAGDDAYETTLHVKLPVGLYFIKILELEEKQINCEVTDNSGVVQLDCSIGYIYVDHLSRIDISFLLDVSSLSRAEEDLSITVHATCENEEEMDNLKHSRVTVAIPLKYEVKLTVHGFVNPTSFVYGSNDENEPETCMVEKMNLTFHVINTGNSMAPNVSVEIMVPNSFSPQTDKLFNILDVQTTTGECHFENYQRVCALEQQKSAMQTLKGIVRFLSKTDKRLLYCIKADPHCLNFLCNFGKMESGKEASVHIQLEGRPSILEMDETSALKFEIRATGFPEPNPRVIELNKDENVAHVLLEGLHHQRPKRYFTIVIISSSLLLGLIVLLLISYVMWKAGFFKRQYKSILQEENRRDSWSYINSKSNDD
T1 sequence (P26010 20-798): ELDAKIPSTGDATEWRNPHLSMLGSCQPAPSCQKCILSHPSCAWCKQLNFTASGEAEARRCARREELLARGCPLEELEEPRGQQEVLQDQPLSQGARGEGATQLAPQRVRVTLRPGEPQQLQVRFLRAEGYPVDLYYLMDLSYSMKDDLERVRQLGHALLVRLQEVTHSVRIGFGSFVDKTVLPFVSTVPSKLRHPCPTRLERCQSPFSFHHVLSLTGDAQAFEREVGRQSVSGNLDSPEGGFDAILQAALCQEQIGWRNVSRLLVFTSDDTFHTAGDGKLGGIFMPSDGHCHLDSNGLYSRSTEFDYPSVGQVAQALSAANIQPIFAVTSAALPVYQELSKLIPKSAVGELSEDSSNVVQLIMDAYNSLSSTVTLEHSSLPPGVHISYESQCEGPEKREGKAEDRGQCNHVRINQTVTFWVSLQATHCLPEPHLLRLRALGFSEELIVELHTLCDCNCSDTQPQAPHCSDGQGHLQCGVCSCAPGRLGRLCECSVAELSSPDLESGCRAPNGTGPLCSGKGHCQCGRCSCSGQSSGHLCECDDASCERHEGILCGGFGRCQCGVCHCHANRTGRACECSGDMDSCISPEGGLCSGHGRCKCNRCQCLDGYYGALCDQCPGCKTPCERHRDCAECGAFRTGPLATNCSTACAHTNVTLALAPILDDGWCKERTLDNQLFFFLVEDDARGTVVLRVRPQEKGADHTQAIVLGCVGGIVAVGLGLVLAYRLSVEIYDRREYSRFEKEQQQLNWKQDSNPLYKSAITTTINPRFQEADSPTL
Kind of assay: RPMI-CS-1 cell adhesion assay. It counts as cell-based. The following applies: adhesion of RPMI B-cell line (expresses α4β7) to CS-1 peptide coated microwells; read-out: RPMI-CS-1 IC50 value range. Here is the method: RPMI-CS-1 Cell Adhesion Assay:
The test compounds were added in increasing concentrations to RPMI cells and then the cell-compound mixture was added to CS-1 coated microwells. The plates were incubated, washed and the percentage of attached cells were quantitated.
The CS-1 derived peptide, […], and the scrambled control peptide, […], were synthesized at Tanabe Research Laboratories, USA, Inc. on a Beckman 990 synthesizer using t-Boc methodology. […] Microtiter plates were coated with 20 μg/ml human serum albumin (HSA) for 2 hours at room temperature, washed once with PBS and derivatized with 10 μg/ml SPDP for 1 hour. […] Unbound peptide was removed from the plates by washing with PBS. To block non-reacted sites, the plates were coated with 100 μl of a 2.5 mg/ml BSA solution in PBS for one hour at 37° C. 100 μl of RPMI cells (2.5×10^6 cells/ml) in Dulbecco's Modified Eagles Medium (DMEM) plus 0.25% ovalbumin were added to peptide coated dishes and incubated for 1 hour at 37° C. […] To do this, the enzyme substrate p-nitrophenyl-N-acetyl-β-D-glucoseaminide is dissolved at 7.5 mM in 0.1 M citrate buffer pH 5 and then mixed with an equal volume of 0.5% Triton X100. 50 μl of the substrate solution was added to the plates and the plates were incubated at 37° C. for 60 minutes.
In this assay, IC50 value ranges (μM) are depicted by A, B, C and D. These ranges as follows. D>5≧C>1≧B>0.3≧A
Usually pIC50 stands for the negative decadic logarithm of the IC50, by convention in mol/L. Take `COc1cc(CN2CCCC2)cc(OC)c1-c1ccc(C[C@H](NC(=O)c2c(Cl)cccc2Cl)C(=O)O)cc1` [Example 243]: the negative-log IC50 (pIC50) was above 6.52.

For `COc1cc(OCc2ccccc2)cc(OC)c1-c1ccc(C[C@H](NC(=O)c2c(Cl)cccc2Cl)C(=O)O)cc1` [Example 350], the negative-log IC50 (pIC50) was above 6.52. Under `COc1cc(F)c(-c2ccc(C[C@H](NC(=O)c3c(Cl)cccc3Cl)C(=O)O)cc2)c(OC)c1` [Example 139] stands above 6.52; under `COc1cc(O)cc(OC)c1-c1ccc(C[C@H](NC(=O)c2c(Cl)cccc2Cl)C(=O)O)cc1` [Example 346, N-(2,6-Dichlorobenzoyl)-4-(2,6-dimethoxy-4-hydroxyphenyl)-L-phenylalanine], above 6.52. With `CS(=O)(=O)Nc1ccccc1-c1ccc(C[C@H](NC(=O)c2c(Cl)cccc2Cl)C(=O)O)cc1` [Example 24, N-(2,6-Dichlorobenzoyl)-4-[2-(methanesulfonylamino)phenyl]-L-phenylalanine] the figure was above 6.52; with `COc1cc(CN(C)CCN(C)C)cc(OC)c1-c1ccc(C[C@H](NC(=O)c2c(Cl)cccc2Cl)C(=O)O)cc1` [Example 247], above 6.52; with `O=C(N[C@@H](Cc1ccc(-c2c(F)cccc2F)cc1)C(=O)O)c1c(Cl)cccc1Cl` [Example 135, N-(2,6-Dichlorobenzoyl)-4-(2,6-difluorophenyl)-L-phenylalanine], above 6.52.

For the compound `COc1cc(OCCN(C)C)cc(OC)c1-c1ccc(C[C@H](NC(=O)c2c(Cl)cccc2Cl)C(=O)O)cc1` [Example 223, N-(2,6-Dichlorobenzoyl)-4-[2,6-dimethoxy-4-[2-(N,N-dimethylamino)ethoxy]phenyl]-L-phenylalanine], the pIC50 was above 6.52. With `CC(C)Oc1ccccc1-c1ccc(C[C@H](NC(=O)c2c(Cl)cccc2Cl)C(=O)O)cc1` [Example 225, N-(2,6-Dichlorobenzoyl)-4-(2-i-propoxyphenyl)-L-phenylalanine], the negative-log IC50 (pIC50) is 5.30 to 6.00. With `COc1cc(CN2CCC3(CC2)OCCO3)cc(OC)c1-c1ccc(C[C@H](NC(=O)c2c(Cl)cccc2Cl)C(=O)O)cc1` [Example 244] the figure was above 6.52; with `O=C(N[C@@H](Cc1ccc(-c2c(OCCO)ccc3c2OCO3)cc1)C(=O)O)c1c(Cl)cccc1Cl` [Example 238, N-(2,6-Dichlorobenzoyl)-4-[2,3-methylenedioxy-6-(2-hydroxyethoxy)phenyl]-L-phenylalanine], above 6.52.

For `COc1ccccc1-c1ccc(C[C@H](NC(=O)c2ccc(NS(=O)(=O)c3ccc(C(F)(F)F)cc3)cc2Cl)C(=O)O)cc1` [Example 187, N-[2-Chloro-4-[[(4-trifluoromethylphenyl)sulfonyl]amino]benzoyl]-4-(2-methoxyphenyl)-L-phenylalanine], the negative logarithm of the IC50 (pIC50) was above 6.52. For the compound “N-(2,6-Dichlorobenzoyl)-4-(2,6-dicyanophenyl)-L-phenylalanine [Example 151]”, the pIC50 was above 6.52. Under `COc1ccccc1-c1ccc(C[C@H](NC(=O)c2c(F)cccc2Cl)C(=O)O)cc1` [Example 86] stands above 6.52; under `N#Cc1sccc1-c1ccc(C[C@H](NC(=O)c2c(Cl)cccc2Cl)C(=O)O)cc1` [Example 219, N-(2,6-Dichlorobenzoyl)-4-(2-cyano-3-thienyl)-L-phenylalanine], 6.00 to 6.52; under `NCc1ccccc1-c1ccc(C[C@H](NC(=O)c2c(Cl)cccc2Cl)C(=O)O)cc1` [Example 47, N-(2,6-Dichlorobenzoyl)-4-[2-(aminomethyl)phenyl]-L-phenylalanine], above 6.52. With `COc1ccccc1-c1ccc(C[C@H](NC(=O)c2ccc(CC(C)C)cc2)C(=O)O)cc1` [Example 102] the figure was below 5.30. Under `Cc1ccc(-c2ccc(C[C@H](NC(=O)c3c(Cl)cccc3Cl)C(=O)O)cc2)cc1` [Example 117] stands 5.30 to 6.00; under `O=C(O)CCCOc1ccccc1-c1ccc(C[C@H](NC(=O)c2c(Cl)cccc2Cl)C(=O)O)cc1` [Example 36], above 6.52. Consider `CCCCCC(=O)Nc1cccc(-c2ccc(C[C@H](NC(=O)c3c(Cl)cccc3Cl)C(=O)O)cc2)c1` [Example 126], for which the negative-log IC50 (pIC50) is 5.30 to 6.00.

As to `COc1ccccc1-c1ccc(C[C@H](NC(=O)c2c(Cl)cccc2Cl)C(=O)NO)cc1` [Example 269, N-(2,6-Dichlorobenzoyl)-4-(2-methoxyphenyl)-L-phenylalanine N-hydroxyamide], the negative logarithm of the IC50 (pIC50) is below 5.30. For `CC(=O)Nc1cccc(-c2ccc(C[C@H](NC(=O)c3c(Cl)cccc3Cl)C(=O)O)cc2)c1` [Example 124], the negative logarithm of the IC50 (pIC50) is 5.30 to 6.00.

For `CCCc1ccc(C(=O)N[C@@H](Cc2ccc(-c3ccccc3OC)cc2)C(=O)O)cc1` [Example 97], the pIC50 was 6.00 to 6.52.

For `COc1ccccc1-c1ccc(C[C@H](NC(=O)c2ccc(Cl)cc2Cl)C(=O)O)cc1` [Example 84], the negative logarithm of the IC50 (pIC50) was 5.30 to 6.00. With `COC(=O)[C@H](Cc1ccc(-c2cccs2)cc1)NC(=O)c1c(Cl)cccc1Cl` [Example 4A, N-(2,6-Dichlorobenzoyl)-4-(2-thienyl)-L-phenylalanine methyl ester] the figure was 5.30 to 6.00; with `COc1cc(CNCCO)cc(OC)c1-c1ccc(C[C@H](NC(=O)c2c(Cl)cccc2Cl)C(=O)O)cc1` [Example 246], above 6.52; with `COC(=O)[C@H](Cc1ccc(-c2ccccc2S(=O)(=O)NC(C)(C)C)cc1)NC(=O)c1c(Cl)cccc1Cl` [Example 15, N-(2,6-Dichlorobenzoyl)-4-[2-[N-(tert-butyl)sulfamoyl]phenyl]-L-phenylalanine methyl ester], 6.00 to 6.52. Under `CS(=O)(=O)NC(=O)c1ccccc1-c1ccc(C[C@H](NC(=O)c2c(Cl)cccc2Cl)C(=O)O)cc1` [Example 61, N-(2,6-Dichlorobenzoyl)-4-[2-[(N-methanesulfonyl)carbamoyl]phenyl]-L-phenylalanine] stands below 5.30. With `COC(=O)[C@H](Cc1ccc(-c2ccccc2CNc2ccccn2)cc1)NC(=O)c1c(Cl)cccc1Cl` [Example 115] the figure was 5.30 to 6.00.

With `COc1ccccc1-c1ccc(C[C@H](NC(=O)c2ccc(C(N)=O)cc2Cl)C(=O)O)cc1` [Example 178, N-[2-Chloro-4-carbamoylbenzoyl]-4-(2-methoxyphenyl)-L-phenylalanine], the negative logarithm of the IC50 (pIC50) is above 6.52.

As to `O=C(N[C@@H](Cc1ccc(-c2cccnc2)cc1)C(=O)O)c1c(Cl)cccc1Cl` [Example 129], the negative-log IC50 (pIC50) was 5.30 to 6.00.
